Measured values published in PMC6271731, “Multitarget Molecular Hybrids of Cinnamic Acids” (Molecules, 2014).

Legend:
[1] = tested on: sciatic nerve crush; experiment: Sciatic Functional Index after sciatic nerve crush; assay type: in vivo, Wistar rats
Source text: SFI is the current standard for measuring functional recovery following rat sciatic nerve crush. Its calculation involves the measurement of wide-ranging relationships between feet and toes of the hindlimb of recovering animals. SFI values close to −100 indicate severe damage, while SFI values close to 0 indicate normal function. The treated rats improved their walk and the relationship between feet and toes of the crushed hindlimbs starting from day 14 to day 21.
One day prior to the surgery and the behavioral testing, Wistar rats were handled by the investigators and introduced to the testing environment for a brief period of time. Rats were anesthetized with chloral hydrate 4.5% (1 mL/100 g). […] After the exposure, the nerve was crushed once for 30 s at standardized force. The muscle was reapproximated and the skin incision was closed using 6 to 0 sutures. The examination of the loss of sensory and motor function in the operated limb established the crush completeness. Digits in the operated limb were pinched with a blunt forceps. Absence of foot withdrawal and vocalization was recorded as loss of sensory and motor function. Animals were placed under a heating lamp until they recovered from the anesthesia and they returned to their home cages.
The tested solutions were freshly prepared on surgery day (day 0).
[…] The day of the surgery is considered as day 0 [36, 37, 38].
In the present study, the plantar surfaces of the hindlimbs of the rats were impregnated with ink and then the animals were allowed to walk on a paper along a corridor, leaving footprints during walking.
A wooden corridor (1 m × 8 cm) with raised sidewalls was used. Two and a half white paper strips (40 × 7.5 cm) were placed along the corridor and were fixed with adhesive tape closely together and at the base and the sidewalls of the corridor. Each rat was trained to walk steadily along the corridor without stops until it made three at least successful efforts of continuous walking. The footprints were allowed to dry and were then converted into digital images using a computer and a high resolution scanner. The image processing was done by using the ImageJ. This is an open-source image analysis software created in 1997 by Rayne Rasband (National Institute of Health), widely used in medical applications, especially neuroscience, for measuring distances and surface and plotting the data. The footprints were analyzed as described by Bain et al. in measurements were included: • (i) print length (PL): distance from the heel to the third toe, • (ii) toe spread (TS) distance from the first to the fifth toe on both sides and • (iii) intermediate toe spread (ITS) the distance between the middle of the second and fourth toe
All measurements were taken both from the experimental (EPL, ETS, EIT) and the normal (NPL, NTS, NIT) side. The formula used to calculate SFI was the following: SFI = −38.3 (EPL − NPL)/NPL + 109.5 (ETS − NTS)/NTS + 13.3 (EIT − NIT)/NIT − 8.8

[2] = tested on: esterase; experiment: In vitro esterase activity on hybrids; assay type: in vitro ADME; settings: 1 mM, phosphate buffer pH 7.8, 37 °C, 90 min and 24 h
Method: Representative hybrid molecules are subjected to an esterase activity in vitro. 100 μL of 1 mg/mL 0.001 N hydrochloric acid of esterase solution was added to 1,250 μL of phosphate buffer (0.1 M) pH 7.8 including the tested compounds (150 μL in DMSO, final concentration 1 mM) and incubated at 37 °C for 90 min. The incubated solution was allowed to set at room temperature. Then, the absorption was measured at 256 nm. The measurement was repeated after 24 h of incubation at 37 °C.

[3] = single i.p. dose 0.01 mmol/mL/kg, 8 h after surgery

SMILES: CC(=O)Nc1ccc(OC(=O)/C=C/c2cccc(Oc3ccccc3)c2)cc1 [Compound 2a, (E)-4-Acetamidophenyl 3-(3-phenoxyphenyl)acrylate]
- SFI, Day before Crash ([1]; baseline before surgery and dosing): −10.26
- SFI, Day-1 [1, 3]: −93.3
- SFI, Day-7 [1, 3]: −93.3
- SFI, Day-14 [1, 3]: −35.45
- SFI, Day-21 [1, 3]: −20.06
- hydrolysis of the ester group by esterase [2]: hydrolyzed
